Measurements taken from patent publication US12636366B2, “Ruthenium (II) complexes and conjugates thereof for use as photosensitizer agent in photodynamic therapy” (Paris Sciences et Lettres, priority 2019, dated 2026).
Read-outs that look alike come from different tables or passages of the source.

Legend:
[1] = system: human cervical carcinoma cells (HeLa); test: Dark and light cytotoxicity, resazurin cell viability assay, HeLa; type: cell-based; settings: for PI (IC50 in the dark/IC50 upon light irradiation): 480 nm
Experimental: (§1) HeLa and CT-26 cell lines were cultured in DMEM media (Gibco, Life Technologies, USA) supplemented with 10% of fetal calf serum (Gibco). U87 and U373 cell lines were cultured in MEM media with addition of 1% of MEM NEAA (non-essential aminoacids) (Gibco) and 10% of fetal calf serum. RPE-1 cells were cultured in DMEM/F-12 (Gibco) supplemented with 10% of fetal calf serum. RPE-1 stable cells lines were cultured as RPE-1 cells with addition of geneticin (0.5 mg/ml) (Gibco). All cell lines were complemented with 100 U/ml penicillin-streptomycin mixture (Gibco), and maintained in humidified atmosphere at 37° C. and 5% of CO2.
(§2) Dark and light cytotoxicity of the Ru(II) complexes was assessed by fluorometric cell viability assay using resazurin (ACROS Organics). For dark and light cytotoxicity, cells were seeded in triplicates in 96 well plates at a density of 4000 cells per well in 100 μl, 24 h prior to treatment. The medium was then replaced with increasing concentration of the tested complexes and cells were incubated for 4 h. Medium was then replaced for fresh complete medium. Cells used for light cytotoxicity experiment were exposed to: 480 nm light for 10 min, 510 nm for 40 min, 540 for 60 min or 595 nm for 120 min in a 96-well plate using a LUMOS-BIO photoreactor (Atlas Photonics). Each well was individually illuminated with a LED at constant current. After irradiation cells were kept for another 44 h in the incubator and the medium was replaced by fresh complete medium containing resazurin (0.2 mg ml^−1 final concentration). After 4 h incubation at 37° C., the fluorescence signal of the resorufin product was read by SpectraMax M5 microplate reader (ex: 540 nm em: 590 nm). IC50 values were calculated using GraphPad Prism software.
(§3) The potential of the complexes to act as PDT PSs was determined on mouse colon carcinoma cells (CT-26), human glioblastoma cells (U87 and U373), human cervical carcinoma cells (HeLa) as well as non-cancerous retina pigmented epithelial cell line (RPE-1) according to the method described above. […] Ideally, a PDT PS should be non-toxic in the dark and highly toxic upon light activation. […] The toxicity of the compounds upon light irradiation (480 nm, 10 min, 3.21 J cm^−2) was then investigated.

[2] = system: human glioblastoma cells (U87); test: Dark and light cytotoxicity, resazurin cell viability assay, U87; type: cell-based; settings: for PI (IC50 in the dark/IC50 upon light irradiation): U87, 480 nm
Experimental: as §1, §2, §3

[3] = Singlet oxygen measurement, direct evaluation (1O2 luminescence at 1270 nm); type: physicochemical; settings: direct method, excitation at 450 nm; for Singlet oxygen quantum yield Φ(1O2), CH3CN Direct / Singlet oxygen quantum yield Φ(1O2), D2O Direct: average of three, +-10%
Experimental: The samples were prepared in an air saturated CH3CN or D2O solution with an absorbance of 0.2 at 450 nm. This solution was irradiated in fluorescence quartz cuvettes (width 1 cm) using a mounted M450LP1 LED (Thorlabs) whose irradiation, centered at 450 nm, has been focused with aspheric condenser lenses. The intensity of the irradiation has been varied using a T-Cube LED Driver (Thorlabs) and measured with an optical power and energy meter. The emission signal was focused and collected at right angle to the excitation pathway and directed to a Princeton Instruments Acton SP-2300i monochromator equipped with 600 g/mm grating blazed at 1200 nm. A longpass glass filter was placed in front of the monochromator entrance slit to cut off light at wavelengths shorter than 850 nm. The slits for detection were fully open. As a detector an EO-817L IR-sensitive liquid nitrogen cooled germanium diode detector (North Coast Scientific Corp.) has been used. The singlet oxygen luminesce at 1270 nm was measured by recording spectra from 1100 to 1400 nm. For the data analysis, the singlet oxygen luminescence peaks at different irradiation intensities were integrated. The resulting areas were plotted against the percentage of the irradiation intensity and the slope of the linear regression calculated. The absorbance of the sample was corrected with an absorbance correction factor. As reference for the measurement in an CH3CN solution phenalenone (Φphenaleone=0.95)^33 and for the measurement in a D2O solution [Ru(bipy)3]Cl2 (ΦRu(bipy)3C12=0.22)^31 was used and the singlet oxygen quantum yields were calculated using the following formula: […]
Additionally, the DFT calculations were able to characterize the lowest energy absorption band as a MLCT transition with a triplet state. With this in hand, a quantitative evaluation of singlet oxygen (^1O2) was performed to assess the potential of the PSs in PDT, by two methods: 1) direct by measurement of the luminescence of ^1O2, 2) indirect by measurement of the variation in absorbance of a reporter molecule, as described above. In the first method, the efficiency of the production of ^1O2 was assessed by measuring its phosphorescence at 1270 nm. Worthy of note, the possibility of detection in this experiment is affected by its environment as well as the used setup. With the setup used in this study, we could only detect Φ(^1O2) larger than 0.20 based on a low peak-to-noise ratio. In the second method (indirect method), ^1O2 is reacting with imidazole (in CH3CN) and histidine (in PBS buffer) to a trans-annular peroxide adduct. This can further quench the absorbance of the reporter molecule p-nitrosodimethyl aniline (RNO), which has been monitored by UV/VIS spectroscopy. In both methods, the ^1O2 production has been compared with a reference molecule, namely a solution of phenalenone in CH3CN (Φ(^1O2)phenaleone=0.95)^33 and a solution of [Ru(bipy)3]Cl2 in water Φ(^1O2)Ru(bipy)3Cl2=0.22)^31. […] In comparison, the values changed drastically in an aqueous solution. […] They have untypically low Φ(^1O2) values in CH3CN (0.22-0.35) for Ru(II) polypyridyl complexes. Subsequently, the ^1O2 production was also quite low in an aqueous environment.

[4] = system: CT-26 mouse colon carcinoma cells; test: Dark and light cytotoxicity, resazurin cell viability assay, CT-26; type: cell-based; settings: for PI (IC50 in the dark/IC50 upon light irradiation): CT-26, 480 nm
Experimental: as §1, §2, §3

[5] = light 480 nm, 10 min, 3.21 J cm^−2, read-out: IC50 Light
[6] = U87, light 480 nm, 10 min, 3.21 J cm^−2, read-out: IC50 Light
[7] = CT-26, dark, 4 h incubation, read-out: IC50 Dark
[8] = CT-26, light 480 nm, 10 min, 3.21 J cm^−2, read-out: IC50 Light

Molecule: (2,2′-bipyridine-4,4′-carboxamide)bis(1,10-phenanthroline)ruthenium(II) hexafluorophosphate [Compound 4]
- IC50 ([1]; dark, read-out: IC50 Dark): > 100 µM
- IC50 [1, 5]: > 100 µM
- IC50 ([2]; U87, dark, read-out: IC50 Dark): > 100 µM
- IC50 [2, 6]: > 100 µM
- Singlet oxygen quantum yield Φ(1O2), CH3CN Direct [3]: 0.62
- Singlet oxygen quantum yield Φ(1O2), D2O Direct [3]: 0.25
- PI (IC50 in the dark/IC50 upon light irradiation) ([4]; 10 min): >1
- IC50 [4, 7]: > 100 µM
- IC50 [4, 8]: 72.6 ± 7.44 µM

Molecule: ((E,E′)-4,4′-Bis(N,N′-dimethylaminovinyl)-2,2′-bipyridine)bis(4,7-diphenyl-1,10-phenanthroline)ruthenium(II) hexafluorophosphate [Compound 7]
- PI (IC50 in the dark/IC50 upon light irradiation) ([1]; 10 min): >6.5
- IC50 ([1]; dark, read-out: IC50 Dark): > 100 µM
- IC50 [1, 5]: 15.2 ± 1.29 µM
- PI (IC50 in the dark/IC50 upon light irradiation) ([2]; 10 min): >12.7
- IC50 ([2]; U87, dark, read-out: IC50 Dark): > 100 µM
- IC50 [2, 6]: 7.9 ± 0.54 µM
- Singlet oxygen quantum yield Φ(1O2), CH3CN Direct [3]: 0.22
- Singlet oxygen quantum yield Φ(1O2), D2O Direct (not determinable) [3]: n.d. (n.d. = not determinable, Φ(^1O2) < 0.20)
- PI (IC50 in the dark/IC50 upon light irradiation) ([4]; 10 min): 14.3
- IC50 [4, 7]: 94.5 ± 7.38 µM
- IC50 [4, 8]: 6.62 ± 0.7 µM

Molecule: (4,4′-Dimethyl-2,2′-bipyridine)bis(4,7-diphenyl-1,10-phenanthroline)ruthenium(II) hexafluorophosphate [Compound 6]
- PI (IC50 in the dark/IC50 upon light irradiation) ([1]; 10 min): 22.2
- IC50 ([1]; dark, read-out: IC50 Dark): 13.6 ± 1.3 µM
- IC50 [1, 5]: 0.61 ± 0.06 µM
- PI (IC50 in the dark/IC50 upon light irradiation) ([2]; 10 min): 42.5
- IC50 ([2]; U87, dark, read-out: IC50 Dark): 28.4 ± 1.97 µM
- IC50 [2, 6]: 0.67 ± 0.13 µM
- Singlet oxygen quantum yield Φ(1O2), CH3CN Direct [3]: 0.61
- Singlet oxygen quantum yield Φ(1O2), D2O Direct (not determinable) [3]: n.d. (n.d. = not determinable, Φ(^1O2) < 0.20)
- Singlet oxygen quantum yield Φ(1O2), D2O Direct [3]: not detectable
- PI (IC50 in the dark/IC50 upon light irradiation) ([4]; 10 min): 16.3
- PI ([4]; CT-26, 510 nm 40 min): 20.6
- PI ([4]; CT-26, 540 nm 60 min): 9.6
- PI ([4]; CT-26, 595 nm 2 h): 23.47
- IC50 ([4]; CT-26, dark control of the 510 nm 40 min experiment, read-out: IC50 Dark): 4.18 ± 0.56 µM
- IC50 ([4]; CT-26, dark control of the 540 nm 60 min experiment, read-out: IC50 Dark): 3.27 ± 0.64 µM
- IC50 ([4]; CT-26, dark control of the 595 nm 2 h experiment, 2 h at 37° C. in non-CO2 atmosphere, read-out: IC50 Dark): 1.408 ± 0.003 µM
- IC50 [4, 7]: 3.09 ± 0.3 µM
- IC50 [4, 8]: 0.19 ± 0.04 µM
- IC50 ([4]; CT-26, light 540 nm 60 min, read-out: IC50 Light): 0.34 ± 0.005 µM
- IC50 ([4]; CT-26, light 595 nm 2 h, no CO2 atmosphere during irradiation, read-out: IC50 Light): 0.06 ± 0.004 µM

Molecule: (4,4′-Dibromo-2,2′-bipyridine)bis(1,10-phenanthroline)ruthenium(II) hexafluorophosphate [Compound 3]
- IC50 ([1]; dark, read-out: IC50 Dark): > 100 µM
- IC50 [1, 5]: > 100 µM
- IC50 ([2]; U87, dark, read-out: IC50 Dark): > 100 µM
- IC50 [2, 6]: > 100 µM
- Singlet oxygen quantum yield Φ(1O2), CH3CN Direct [3]: 0.55
- Singlet oxygen quantum yield Φ(1O2), D2O Direct (not determinable) [3]: n.d. (n.d. = not determinable, Φ(^1O2) < 0.20)
- Singlet oxygen quantum yield Φ(1O2), D2O Direct [3]: not detectable
- PI (IC50 in the dark/IC50 upon light irradiation) ([4]; 10 min): >1
- IC50 [4, 7]: > 100 µM
- IC50 [4, 8]: 85.7 ± 9.47 µM

Molecule: ((E,E′)-4,4′-Bis(N,N′-dimethylaminovinyl)-2,2′-bipyridine)bis(1,10-phenanthroline)ruthenium(II) hexafluorophosphate [Compound 5]
- IC50 ([1]; dark, read-out: IC50 Dark): > 100 µM
- IC50 [1, 5]: > 100 µM
- IC50 ([2]; U87, dark, read-out: IC50 Dark): > 100 µM
- IC50 [2, 6]: > 100 µM
- Singlet oxygen quantum yield Φ(1O2), CH3CN Direct [3]: 0.24
- Singlet oxygen quantum yield Φ(1O2), D2O Direct (not determinable) [3]: n.d. (n.d. = not determinable, Φ(^1O2) < 0.20)
- PI (IC50 in the dark/IC50 upon light irradiation) ([4]; 10 min): >2
- IC50 [4, 7]: > 100 µM
- IC50 [4, 8]: 52.5 ± 6.04 µM

Molecule: Cc1ccnc(-c2cc(C)ccn2)c1.F[P-](F)(F)(F)(F)F.F[P-](F)(F)(F)(F)F.[Ru].c1cnc2c(c1)ccc1cccnc12.c1cnc2c(c1)ccc1cccnc12 [Compound 2, (4,4′-Dimethyl-2,2′-bipyridine)bis(1,10-phenanthroline)ruthenium(II)hexafluorophosphate]
- IC50 ([1]; dark, read-out: IC50 Dark): > 100 µM
- IC50 [1, 5]: > 100 µM
- PI (IC50 in the dark/IC50 upon light irradiation) ([2]; 10 min): >1
- IC50 ([2]; U87, dark, read-out: IC50 Dark): > 100 µM
- IC50 [2, 6]: 71.4 ± 7.54 µM
- Singlet oxygen quantum yield Φ(1O2), CH3CN Direct [3]: 0.69
- Singlet oxygen quantum yield Φ(1O2), D2O Direct [3]: 0.31
- PI (IC50 in the dark/IC50 upon light irradiation) ([4]; 10 min): >1
- IC50 [4, 7]: > 100 µM
- IC50 [4, 8]: 91.2 ± 7.54 µM

Molecule: F[P-](F)(F)(F)(F)F.F[P-](F)(F)(F)(F)F.[Ru+2].c1ccc(-c2ccccn2)nc1.c1cnc2c(c1)ccc1cccnc12.c1cnc2c(c1)ccc1cccnc12 [Compound 1, (Bipyridine)bis(1,10-phenanthroline)ruthenium(II)hexafluorophosphate]
- IC50 ([1]; dark, read-out: IC50 Dark): > 100 µM
- IC50 [1, 5]: > 100 µM
- PI (IC50 in the dark/IC50 upon light irradiation) ([2]; 10 min): >1
- IC50 ([2]; U87, dark, read-out: IC50 Dark): > 100 µM
- IC50 [2, 6]: 93.7 ± 2.5 µM
- Singlet oxygen quantum yield Φ(1O2), CH3CN Direct [3]: 0.57
- Singlet oxygen quantum yield Φ(1O2), D2O Direct [3]: 0.27
- IC50 [4, 7]: > 100 µM
- IC50 [4, 8]: > 100 µM
